# Results: publication PMC8801796 (Reproductive Toxicology (Elmsford, N.y.), 2022)
# Like-named read-outs stand apart in the source and are kept apart here.
# Columns and labels:
# [1] = Fertility and early embryonic development study in rats; type: in vivo, rat; conditions: both, Wistar Han, rat, in vivo, oral
# [2] = test system: Wistar Han (Crl:WI[Han]) rats; test: as above; type: in vivo, rat; conditions: for Corpora lutea / Implantation sites / Live embryos / Resorptions: GD 14 uterine examination; for Number of pregnant females: of 20
# [3] = Maternal toxicokinetics, rat EFD study; type: in vivo; conditions: for Cmax: female, Wistar Han, in vivo, po; for Cmax / Exposure Margin AUC24 / Exposure Margin Cmax: rat; for Mean Systemic Exposure AUC24: maternal rat; for Exposure Margin AUC24: relative to predicted human AUC24 68.6 μg h/mL; for Exposure Margin Cmax: relative to predicted human Cmax 4.14 μg/mL
# [4] = Maternal toxicokinetics, rabbit EFD study; type: in vivo; conditions: for Cmax: female, New Zealand White, in vivo, po; for Cmax / Exposure Margin AUC24 / Exposure Margin Cmax: rabbit; for Mean Systemic Exposure AUC24: maternal rabbit; for Exposure Margin AUC24: relative to predicted human AUC24 68.6 μg h/mL; for Exposure Margin Cmax: relative to predicted human Cmax 4.14 μg/mL
# [5] = test system: New Zealand White [Hra:(NZW)SPF] rabbits
# [6] = test system: rats; conditions: doses up to 1000 mg/kg/day; cited from earlier work
# [7] = test system: monkeys; conditions: doses up to 600 mg/kg/day; cited from earlier work
# [8] = cited from earlier work
# [9] = in vivo; conditions: female, New Zealand White, rabbit, 1000 mg/kg/day
# [10] = Rat embryo-fetal development; conditions: female, Wistar Han, rat, in vivo, oral
# [11] = test system: Wistar Han (Crl:WI[Han]) rats; test: Rat embryo-fetal development
structure (smiles),measurement,setting,value
"CC(C)(C)[C@H](NC(=O)C(F)(F)F)C(=O)N1C[C@H]2[C@@H]([C@H]1C(=O)N[C@H](C#N)C[C@@H]1CCNC1=O)C2(C)C [NMV, nirmatrelvir]",NOAEL,[1],1000 mg/kg/day
same,"Female Food Consumption, Gestation Day 0−14",[2]; 60 mg/kg/day,19.2 ± 2.1 g/day
same,"Female Food Consumption, Premating Day 1−14",[2]; 60 mg/kg/day,15.3 ± 1.2 g/day
same,Female Terminal Body Weight,[2]; 60 mg/kg/day,277.0 ± 24.1 g
same,"Male Food Consumption, Mating Day 15−19",[2]; 60 mg/kg/day,19.3 ± 2.8 g/day
same,"Male Food Consumption, Premating Day 1−14",[2]; 60 mg/kg/day,22.0 ± 1.1 g/day
same,Male Terminal Body Weight,[2]; 60 mg/kg/day,409.9 ± 22.7 g
same,Mean no. of estrous cycles,[2]; 60 mg/kg/day,2.7 ± 0.5
same,Postimplantation loss,[2]; 60 mg/kg/day,5.3 ± 5.7%
same,Precoital interval,[2]; 60 mg/kg/day,3.6 ± 3.5 days
same,Preimplantation loss,[2]; 60 mg/kg/day,9.7 ± 8.1%
same,Corpora lutea,[2]; 60 mg/kg/day,13.8 ± 1.3
same,Implantation sites,[2]; 60 mg/kg/day,12.5 ± 1.4
same,Live embryos,[2]; 60 mg/kg/day,11.8 ± 1.4
same,Resorptions,[2]; 60 mg/kg/day,0.7 ± 0.7
same,Number of pregnant females,[2]; 60 mg/kg/day,19
same,"Female Food Consumption, Gestation Day 0−14",[2]; 200 mg/kg/day,19.0 ± 2.2 g/day
same,"Female Food Consumption, Premating Day 1−14",[2]; 200 mg/kg/day,14.8 ± 0.8 g/day
same,Female Terminal Body Weight,[2]; 200 mg/kg/day,272.0 ± 13.3 g
same,"Male Food Consumption, Mating Day 15−19",[2]; 200 mg/kg/day,18.0 ± 3.1 g/day
same,"Male Food Consumption, Premating Day 1−14",[2]; 200 mg/kg/day,23.0 ± 1.2 g/day
same,Male Terminal Body Weight,[2]; 200 mg/kg/day,411.6 ± 22.2 g
same,Mean no. of estrous cycles,[2]; 200 mg/kg/day,2.7 ± 0.5
same,Postimplantation loss,[2]; 200 mg/kg/day,9.5 ± 12.8%
same,Precoital interval,[2]; 200 mg/kg/day,3.0 ± 2.2 days
same,Preimplantation loss,[2]; 200 mg/kg/day,11.0 ± 18.4%
same,Corpora lutea,[2]; 200 mg/kg/day,14.1 ± 1.7
same,Implantation sites,[2]; 200 mg/kg/day,12.6 ± 3.0
same,Live embryos,[2]; 200 mg/kg/day,11.5 ± 3.2
same,Resorptions,[2]; 200 mg/kg/day,1.1 ± 1.6
same,Number of pregnant females,[2]; 200 mg/kg/day,18
same,"Female Food Consumption, Gestation Day 0−14",[2]; 1000 mg/kg/day,19.0 ± 1.6 g/day
same,"Female Food Consumption, Premating Day 1−14",[2]; 1000 mg/kg/day,14.7 ± 1.0 g/day
same,Female Terminal Body Weight,[2]; 1000 mg/kg/day,277.8 ± 14.1 g
same,"Male Food Consumption, Mating Day 15−19",[2]; 1000 mg/kg/day,18.3 ± 3.2 g/day
same,Male Terminal Body Weight,[2]; 1000 mg/kg/day,408.9 ± 19.7 g
same,Mean no. of estrous cycles,[2]; 1000 mg/kg/day,2.6 ± 0.5
same,Postimplantation loss,[2]; 1000 mg/kg/day,10.6 ± 11.9%
same,Precoital interval,[2]; 1000 mg/kg/day,3.2 ± 2.9 days
same,Preimplantation loss,[2]; 1000 mg/kg/day,16.9 ± 22.8%
same,Corpora lutea,[2]; 1000 mg/kg/day,12.7 ± 1.6
same,Implantation sites,[2]; 1000 mg/kg/day,10.5 ± 3.1
same,Live embryos,[2]; 1000 mg/kg/day,9.6 ± 3.2
same,Resorptions,[2]; 1000 mg/kg/day,1.0 ± 0.8
same,Number of pregnant females,[2]; 1000 mg/kg/day,20
same,"Male Food Consumption, Premating Day 1−14","[2]; 1000 mg/kg/day, p ≤ 0.05",20.9 ± 0.9 g/day
same,Effects on male or female fertility,[2]; up to 1000 mg/kg/day,no NMV-related effects on male or female fertility
same,Systemic toxicity in males and females,[2]; up to 1000 mg/kg/day,no evidence of systemic toxicity
same,Cmax,[3]; 100 mg/kg/day,29000 ± 11000 ng/mL
same,Cmax,[3]; 300 mg/kg/day,43200 ± 14400 ng/mL
same,Cmax,[3]; 1000 mg/kg/day,65400 ± 18700 ng/mL
same,Mean Systemic Exposure AUC24,"[3]; GD 17, 100 mg/kg/day",75.5 ± 12.4 μgh^•/mL
same,Mean Systemic Exposure AUC24,"[3]; GD 17, 300 mg/kg/day",346 ± 92.0 μgh^•/mL
same,Mean Systemic Exposure AUC24,"[3]; GD 17, 1000 mg/kg/day",535 ± 330 μgh^•/mL
same,Exposure Margin AUC24,"[3]; GD 17, 100 mg/kg/day",1.1x
same,Exposure Margin Cmax,"[3]; GD 17, 100 mg/kg/day",7.0x
same,Exposure Margin AUC24,"[3]; GD 17, 300 mg/kg/day",5.0x
same,Exposure Margin Cmax,"[3]; GD 17, 300 mg/kg/day",10x
same,Exposure Margin AUC24,"[3]; GD 17, 1000 mg/kg/day",7.8x
same,Exposure Margin Cmax,"[3]; GD 17, 1000 mg/kg/day",16x
same,Cmax,[4]; 100 mg/kg/day,17000 ± 6100 ng/mL
same,Cmax,[4]; 300 mg/kg/day,42900 ± 11100 ng/mL
same,Cmax,[4]; 1000 mg/kg/day,99600 ± 46500 ng/mL
same,Mean Systemic Exposure AUC24,"[4]; GD 19, 100 mg/kg/day",98.7 ± 27.4 μgh^•/mL
same,Mean Systemic Exposure AUC24,"[4]; GD 19, 300 mg/kg/day",195 ± 56.8 μgh^•/mL
same,Mean Systemic Exposure AUC24,"[4]; GD 19, 1000 mg/kg/day",689 ± 206 μgh^•/mL
same,Exposure Margin AUC24,"[4]; GD 19, 100 mg/kg/day",1.4x
same,Exposure Margin Cmax,"[4]; GD 19, 100 mg/kg/day",4.1x
same,Exposure Margin AUC24,"[4]; GD 19, 300 mg/kg/day",2.8x
same,Exposure Margin Cmax,"[4]; GD 19, 300 mg/kg/day",10x
same,Exposure Margin AUC24,"[4]; GD 19, 1000 mg/kg/day",10x
same,Exposure Margin Cmax,"[4]; GD 19, 1000 mg/kg/day",24x
same,Corpora lutea,[5]; 100 mg/kg,9.7 ± 1.5
same,Fetal weight (g)/Litter,[5]; 100 mg/kg,40.2 ± 3.0 g
same,Implantation sites,[5]; 100 mg/kg,8.2 ± 1.7
same,Maternal Body Weight (GD 29),[5]; 100 mg/kg,3.6 ± 0.2 kg
same,Maternal Body Weight Gain (GD 7−29),[5]; 100 mg/kg,0.5 ± 0.1 kg
same,Maternal Food Consumption (GD 7−29),[5]; 100 mg/kg,2983.9 ± 289.5 g
same,Post-implantation loss,[5]; 100 mg/kg,3.3 ± 7.7%
same,Pre-implantation loss,[5]; 100 mg/kg,14.4 ± 17.9%
same,Corpora lutea,[5]; 300 mg/kg,9.4 ± 2.1
same,Fetal weight (g)/Litter,[5]; 300 mg/kg,40.3 ± 4.5 g
same,Implantation sites,[5]; 300 mg/kg,8.6 ± 2.3
same,Maternal Body Weight (GD 29),[5]; 300 mg/kg,3.6 ± 0.2 kg
same,Maternal Body Weight Gain (GD 7−29),[5]; 300 mg/kg,0.4 ± 0.1 kg
same,Maternal Food Consumption (GD 7−29),[5]; 300 mg/kg,2908.9 ± 500.1 g
same,Post-implantation loss,[5]; 300 mg/kg,5.4 ± 7.4%
same,Pre-implantation loss,[5]; 300 mg/kg,9.5 ± 10.2%
same,Corpora lutea,[5]; 1000 mg/kg,9.5 ± 1.7
same,Implantation sites,[5]; 1000 mg/kg,8.8 ± 1.6
same,Maternal Body Weight (GD 29),[5]; 1000 mg/kg,3.6 ± 0.2 kg
same,Maternal Body Weight Gain (GD 7−29),[5]; 1000 mg/kg,0.4 ± 0.1 kg
same,Maternal Food Consumption (GD 7−29),[5]; 1000 mg/kg,2703.0 ± 514.2 g
same,Post-implantation loss,[5]; 1000 mg/kg,3.2 ± 4.9%
same,Pre-implantation loss,[5]; 1000 mg/kg,6.4 ± 11.8%
same,Fetal weight (g)/Litter,"[5]; 1000 mg/kg, p ≤ 0.01",37.7 ± 4.4 g
same,Mean maternal body weight gains and food consumption versus control,"[5]; rabbit, 1000 mg/kg/day",slightly lower than control
same,Effects on embryo-fetal viability,[5]; up to 1000 mg/kg/day,no NMV-related effects on embryo-fetal viability
same,"Effects on external, visceral, or skeletal morphological development",[5]; up to 1000 mg/kg/day,"no NMV-related effects on external, visceral, or skeletal morphological development"
same,Adverse findings in 2-week general toxicology study,[6],lack of adverse findings
same,Adverse findings in 2-week general toxicology study,[7],lack of adverse findings
same,Genetic toxicity,[8],lack of genetic toxicity
same,NOAEL,[9],300 mg/kg/day
same,NOAEL,[10],1000 mg/kg/day
same,Corpora lutea,[11]; 100 mg/kg,11.4 ± 1.1
same,Fetal weight (g)/Litter,[11]; 100 mg/kg,5.3 ± 0.3 g
same,Implantation sites,[11]; 100 mg/kg,9.9 ± 1.5
same,Maternal Food Consumption (GD 6−21),[11]; 100 mg/kg,313.4 ± 32.0 g/day
same,Post-implantation loss,[11]; 100 mg/kg,6.5 ± 15.4%
same,Pre-implantation loss,[11]; 100 mg/kg,12.8 ± 11.1%
same,Corpora lutea,[11]; 300 mg/kg,11.5 ± 1.5
same,Fetal weight (g)/Litter,[11]; 300 mg/kg,5.5 ± 0.3 g
same,Implantation sites,[11]; 300 mg/kg,9.3 ± 2.4
same,Maternal Food Consumption (GD 6−21),[11]; 300 mg/kg,322.3 ± 20.8 g/day
same,Post-implantation loss,[11]; 300 mg/kg,6.8 ± 14.9%
same,Pre-implantation loss,[11]; 300 mg/kg,18.7 ± 19.9%
same,Corpora lutea,[11]; 1000 mg/kg,11.5 ± 1.5
same,Fetal weight (g)/Litter,[11]; 1000 mg/kg,5.4 ± 0.3 g
same,Implantation sites,[11]; 1000 mg/kg,9.7 ± 2.6
same,Maternal Food Consumption (GD 6−21),[11]; 1000 mg/kg,309.5 ± 43.1 g/day
same,Post-implantation loss,[11]; 1000 mg/kg,9.7 ± 14.1%
same,Pre-implantation loss,[11]; 1000 mg/kg,15.3 ± 21.0%
same,Effects on embryo-fetal viability,[11]; all dose groups,no NMV-related effects on embryo-fetal viability
same,Maternal toxicity,[11]; any dose up to 1000 mg/kg/day,no NMV-related maternal toxicity
same,"Effects on fetal external, visceral, or skeletal morphological development",[11]; up to 1000 mg/kg/day,"no effects on fetal external, visceral, or skeletal morphological development"
